The structures appear in SMILES notation. Where two headings read alike, the source gives them in different places.

Experiment [1] has as its target T1, PI3Kα (Homo sapiens, UniProt P42336).
T1 construct: purchased Carna Biosciences
Briefly: PI3K kinases inhibition in vitro (ADP-Glo), PI3Kα. The format is biochemical. As to the method: (§1) Tested compounds were dissolved in 100% DMSO, and thus obtained solutions were serially diluted in 1× reaction buffer. Recombinant kinase was diluted in a reaction mixture comprising 5× reaction buffer, substrate (1 mM sodium diacetate 4,5-bisphosphate phosphatydylinositol (PIP2) solution in 40 mM Tris buffer), and water. To the wells in a 96-wells plate, 5 μl of compounds solutions and 15 μl of the kinase solution in the reaction mixture were added. To initiate interaction of tested chemical compounds with the enzyme, the plate was incubated for 10 minutes at suitable temperature in a plate thermostat with orbital shaking at 600 rpm. Negative control wells contained all above reagents except tested compound and kinase, and positive control wells contained all above reagents except tested compounds. Enzymatic reaction was initiated by adding 5 μl of 150 μM ATP solution, subsequently the plate was incubated for 1 hour at 25° C. or 30° C. (depending on PI3K isoform tested) in plate thermostat with orbital shaking of the plate contents at 600 rpm. Reaction conditions are presented below in Table 12.
(§2) Detection of ADP formed in the enzymatic reaction was then performed using ADP-Glo Kinase Assay (Promega). To the wells of a 96-well plate 25 μl of ADP-Glo Reagent were added, and the plate was incubated for 40 minutes at 25° C. in a plate thermostat with orbital shaking at 600 rpm. Then to the wells of 96-well plate 50 μl of Kinase Detection Reagent were added and the plate was incubated for 40 minutes at 25° C. in a plate thermostat with orbital shaking at 600 rpm. After incubation time, luminescence intensity in a well was measured by Victor Light luminometer (Perkin Elmer, Inc.).
(§3) IC50 values were determined on the basis of luminescence intensity measurements in wells containing tested compounds at different concentrations and in control wells. These values were calculated with Graph Pad 5.03 software by fitting the curve using non-linear regression. Each compound was tested at least in quadruplicates (4 wells) on two 96-well plates using at least 4 wells of each of the controls.

The target of experiment [2] is T2, PI3Kδ (Homo sapiens, UniProt O00329).
T2 construct: purchased Merck Millipore
As to the kind of experiment: PI3K kinases inhibition in vitro (ADP-Glo), PI3Kδ. It counts as biochemical. As to the method: as §1, §2, §3

Where [3] appears, read: averaged, recombinant kinase, 25° C., 1 h, PIP2 30 μM, read-out: PI3Kδ IC50.

T1 sequence (P42336 whole entry): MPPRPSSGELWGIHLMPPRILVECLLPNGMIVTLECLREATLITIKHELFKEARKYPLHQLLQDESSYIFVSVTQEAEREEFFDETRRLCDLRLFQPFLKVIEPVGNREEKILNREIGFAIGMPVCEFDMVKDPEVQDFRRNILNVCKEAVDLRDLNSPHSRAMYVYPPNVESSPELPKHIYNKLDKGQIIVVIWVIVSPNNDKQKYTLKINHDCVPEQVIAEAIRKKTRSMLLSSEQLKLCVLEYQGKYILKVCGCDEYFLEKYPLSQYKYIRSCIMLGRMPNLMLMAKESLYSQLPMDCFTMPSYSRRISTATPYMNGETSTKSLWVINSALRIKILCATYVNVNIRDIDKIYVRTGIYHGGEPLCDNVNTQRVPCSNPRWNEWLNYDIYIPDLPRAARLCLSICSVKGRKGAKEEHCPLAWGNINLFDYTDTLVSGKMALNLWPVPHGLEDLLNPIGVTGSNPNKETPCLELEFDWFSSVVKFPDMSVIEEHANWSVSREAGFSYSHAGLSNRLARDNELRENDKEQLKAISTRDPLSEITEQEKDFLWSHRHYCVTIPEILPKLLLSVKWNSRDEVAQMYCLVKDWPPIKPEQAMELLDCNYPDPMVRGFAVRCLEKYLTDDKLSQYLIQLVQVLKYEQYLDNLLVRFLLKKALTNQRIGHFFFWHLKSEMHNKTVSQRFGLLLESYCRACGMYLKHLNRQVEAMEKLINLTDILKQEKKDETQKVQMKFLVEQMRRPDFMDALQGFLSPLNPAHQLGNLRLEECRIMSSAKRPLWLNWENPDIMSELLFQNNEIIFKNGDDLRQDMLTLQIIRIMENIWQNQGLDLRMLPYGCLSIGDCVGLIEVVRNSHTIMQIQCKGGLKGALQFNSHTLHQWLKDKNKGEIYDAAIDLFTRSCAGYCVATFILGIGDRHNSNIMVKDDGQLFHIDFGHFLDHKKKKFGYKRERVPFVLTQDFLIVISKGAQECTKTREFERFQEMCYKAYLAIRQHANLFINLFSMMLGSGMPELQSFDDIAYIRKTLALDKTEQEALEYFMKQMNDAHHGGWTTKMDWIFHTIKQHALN
T1 sequence (P27986 whole entry partner): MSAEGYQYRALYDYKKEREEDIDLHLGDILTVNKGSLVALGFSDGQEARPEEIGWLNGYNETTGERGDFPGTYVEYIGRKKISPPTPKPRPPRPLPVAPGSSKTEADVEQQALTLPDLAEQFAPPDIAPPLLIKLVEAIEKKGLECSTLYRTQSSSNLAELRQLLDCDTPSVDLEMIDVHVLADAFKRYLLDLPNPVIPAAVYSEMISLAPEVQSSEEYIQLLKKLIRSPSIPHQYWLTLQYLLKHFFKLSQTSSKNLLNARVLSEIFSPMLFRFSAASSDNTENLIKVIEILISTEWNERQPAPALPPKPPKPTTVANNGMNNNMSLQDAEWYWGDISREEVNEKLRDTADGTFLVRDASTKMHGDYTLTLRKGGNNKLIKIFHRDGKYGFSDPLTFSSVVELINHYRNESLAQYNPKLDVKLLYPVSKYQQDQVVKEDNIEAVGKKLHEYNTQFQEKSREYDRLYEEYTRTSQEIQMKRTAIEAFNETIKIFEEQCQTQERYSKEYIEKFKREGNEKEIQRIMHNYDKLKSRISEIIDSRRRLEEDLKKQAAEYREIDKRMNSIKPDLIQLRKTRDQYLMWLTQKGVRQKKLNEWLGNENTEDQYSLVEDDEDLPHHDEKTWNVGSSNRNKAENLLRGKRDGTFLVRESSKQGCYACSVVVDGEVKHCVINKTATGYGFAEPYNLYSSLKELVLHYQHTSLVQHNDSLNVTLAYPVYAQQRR
T2 sequence (O00329 whole entry): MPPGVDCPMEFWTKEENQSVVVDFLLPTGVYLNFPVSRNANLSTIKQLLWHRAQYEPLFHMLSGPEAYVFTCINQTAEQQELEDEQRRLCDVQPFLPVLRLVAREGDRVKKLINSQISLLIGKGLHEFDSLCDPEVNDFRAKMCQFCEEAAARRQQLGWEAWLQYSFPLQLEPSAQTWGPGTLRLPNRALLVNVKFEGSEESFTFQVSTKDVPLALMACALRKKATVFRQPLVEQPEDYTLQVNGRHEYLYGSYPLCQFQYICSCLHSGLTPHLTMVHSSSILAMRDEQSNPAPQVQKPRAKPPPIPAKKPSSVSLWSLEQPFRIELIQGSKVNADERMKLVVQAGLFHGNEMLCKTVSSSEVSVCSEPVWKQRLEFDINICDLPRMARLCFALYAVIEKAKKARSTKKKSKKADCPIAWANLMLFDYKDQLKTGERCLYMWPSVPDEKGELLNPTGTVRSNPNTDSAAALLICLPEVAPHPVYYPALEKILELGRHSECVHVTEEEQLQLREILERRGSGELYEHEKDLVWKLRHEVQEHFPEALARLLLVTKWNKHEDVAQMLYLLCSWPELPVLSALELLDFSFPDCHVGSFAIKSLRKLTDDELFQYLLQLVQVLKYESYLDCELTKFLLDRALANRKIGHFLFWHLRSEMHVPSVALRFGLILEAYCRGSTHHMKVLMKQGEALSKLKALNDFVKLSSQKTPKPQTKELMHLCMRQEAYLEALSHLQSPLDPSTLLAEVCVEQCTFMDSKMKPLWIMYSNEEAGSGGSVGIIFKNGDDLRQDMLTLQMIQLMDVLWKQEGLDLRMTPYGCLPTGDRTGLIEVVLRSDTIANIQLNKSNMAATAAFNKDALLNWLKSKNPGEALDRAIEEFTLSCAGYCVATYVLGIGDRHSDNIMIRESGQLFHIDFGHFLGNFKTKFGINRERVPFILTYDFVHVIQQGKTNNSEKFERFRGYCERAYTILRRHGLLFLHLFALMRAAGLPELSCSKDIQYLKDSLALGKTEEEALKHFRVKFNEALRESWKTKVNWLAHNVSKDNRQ
T2 sequence (P27986 whole entry, further chain): as the sequence (P27986 whole entry partner) above

With `CS(=O)(=O)N1CCN(Cc2cc3nc(-c4cccc5[nH]ccc45)cc(N4CCOCC4)n3n2)CC1` [Example 2, 5-(1H-indol-4-yl)-2-((4-(methyl-sulphonyl)piperazin-1-yl)methyl)-7-(morpholin-4-yl)pyrazolo[1,5-a]-pyrimidine], the results for the IC50 in experiment [1] and in experiment [2] were over 1000 nM and 100 to 1000 nM, respectively.

Turning to `CC(C)(C)N1CCN(Cc2cc3nc(-c4cccc5[nH]ncc45)cc(N4CCOCC4)n3n2)CC1` [Example 12, 2-((4-tert-butylpiperazin-1-yl)methyl)-5-(1H-indazol-4-yl)-7-(morpholin-4-yl)pyrazolo[1,5-a]-pyrimidine], the IC50 was over 1000 nM in experiment [1] and under 100 nM in experiment [2] (setting [3]). In experiment [2], `O=C(Nc1ccccc1)NC1CCN(Cc2cc3nc(-c4cccc5[nH]ccc45)cc(N4CCOCC4)n3n2)CC1` [Example 37] registered a half-maximal inhibitory concentration (IC50) of 100 to 1000 nM. In the case of `c1cc(-c2cc(N3CCOCC3)n3nc(CN4CCN(C5COC5)CC4)cc3n2)c2cc[nH]c2c1` [Example 34], the IC50 was over 1000 nM in experiment [1] and under 100 nM in experiment [2].

As to `CC(C)(C)N1CCN(Cc2cc3nc(-n4c(C5CC5)nc5ccccc54)cc(N4CCOCC4)n3n2)CC1` [Example 54, 5-(2-cyclopropylbenzimidazol-1-yl)-2-((4-tert-butylpiperazin-1-yl)-methyl)-7-(morpholin-4-yl)-pyrazolo[1,5-a]pyrimidine], the values for the IC50 in experiment [1] and in experiment [2] (setting [3]) were over 1000 nM and 100 to 1000 nM, respectively. Consider `c1cc(-c2cc(N3CCOCC3)n3nc(CN4C[C@@H]5C[C@H]4CN5C4COC4)cc3n2)c2cc[nH]c2c1` [Example 36, 5-(1H-indol-4-yl)-2-(((1S, 4S)-2-(oxetan-3-yl)-2,5-diazabicyclo [2.2.1]hept-2-yl)methyl)-7-(morpholin-4-yl)pyrazolo[1,5-a]-pyrimidine], for which the IC50 in experiment [1] was over 1000 nM; in experiment [2], under 100 nM. Turning to `Cc1nc2ccccc2n1-c1cc(N2CCOCC2)n2nc(CN3CCN(C(C)(C)C)CC3)cc2n1` [Example 48, 5-(2-methylbenzimidazol-1-yl)-2-((4-tert-butylopiperazin-1-yl)-methyl)-7-(morpholin-4-yl)-pyrazolo[1,5-a]pyrimidine], the results for the 50% inhibitory concentration (IC50) in experiment [1] and in experiment [2] (setting [3]) were over 1000 nM and 100 to 1000 nM, respectively. The matching figures for `CC(C)c1nc2ccccc2n1-c1cc(N2CCOCC2)n2nc(CN3CCC(C(C)(C)O)CC3)cc2n1` [Example 53, 5-(2-iso-propylbenzimidazol-1-yl)-2-((4-(2-hydroxypropan-2-yl)-piperidin-1-yl)methyl)-7-(morpholin-4-yl)pyrazolo[1,5-a]-pyrimidine]: over 1000 nM and 100 to 1000 nM.

On to `CCc1nc2ccccc2n1-c1cc(N2CCOCC2)n2nc(CN3CCN(S(C)(=O)=O)CC3)cc2n1` [Example 42, 5-(2-ethylbenzimidazol-1-yl)-2-((4-(methylsulphonyl)piperazin-1-yl)methyl)-7-(morpholin-4-yl)-pyrazolo[1,5-a]pyrimidine], for which the IC50 was over 1000 nM in experiment [1] and 100 to 1000 nM in experiment [2] (setting [3]). Turning to `COC(=O)C1CCN(Cc2cc3nc(-c4cccc5[nH]ccc45)cc(N4CCOCC4)n3n2)CC1` [Example 24, Methyl 1-((5-(1H-indol-4-yl)-7-(morpholin-4-yl)pyrazolo[1,5-a]-pyrimidin-2-yl)methyl)piperidin-4-carboxylate], the figures for the IC50 in experiment [1] and in experiment [2] were over 1000 nM and 100 to 1000 nM, respectively. As for `CCNC(=O)NC1CCN(Cc2cc3nc(-c4cccc5[nH]ccc45)cc(N4CCOCC4)n3n2)CC1` [Example 38], the half-maximal inhibitory concentration (IC50) in experiment [1] is over 1000 nM; in experiment [2] it was 100 to 1000 nM.

Consider `CC(C)(O)C1CCN(Cc2cc3nc(-c4cccc5[nH]ncc45)cc(N4CCOCC4)n3n2)CC1` [Example 15, 2-((4-(2-hydroxypropan-2-yl)-piperidin-1-yl)methyl)-5-(1H-indazol-4-yl)-7-(morpholin-4-yl)-pyrazolo[1,5-a]pyrimidine], for which the IC50 was over 1000 nM in experiment [1] and 100 to 1000 nM in experiment [2] (setting [3]). For `O=S1(=O)CCN(Cc2cc3nc(-c4cccc5[nH]ccc45)cc(N4CCOCC4)n3n2)CC1` [Example 23, 2-((1,1-dioxothio-morpholin-1-yl)-methyl)-5-(1H-indol-4-yl)-7-(morpholin-4-yl)pyrazolo[1,5-a]-pyrimidine], the 50% inhibitory concentration (IC50) is over 1000 nM in experiment [1] and 100 to 1000 nM in experiment [2]. As for `CC(C)(O)C1CCN(Cc2cc3nc(-c4cnc(N)nc4)cc(N4CCOCC4)n3n2)CC1` [Example 18, 5-(2-aminopyrimidin-5-yl)-2-((4-(2-hydroxypropan-2-yl)piperidin-1-yl)methyl)-7-(morpholin-4-yl)-pyrazolo[1,5-a]pyrimidine], the IC50 in experiment [1] is over 1000 nM; in experiment [2] (setting [3]), 100 to 1000 nM. Turning to `COc1ccc(N2CCN(Cc3cc4nc(-c5cccc6[nH]ccc56)cc(N5CCOCC5)n4n3)CC2)cc1` [Example 6, 5-(1H-indol-4-yl)-2-((4-(4-methoxyphenyl)piperazin-1-yl)-methyl)-7-(morpholin-4-yl)-pyrazolo[1,5-a]pyrimidine], the IC50 was over 1000 nM in experiment [1] and 100 to 1000 nM in experiment [2]. `CN1CCN(Cc2cc3nc(-c4cccc5[nH]ccc45)cc(N4CCOCC4)n3n2)CC1` [Example 21, 5-(1H-indol-4-yl)-2-((4-methyl-piperazin-1-yl)methyl)-7-(morpholin-4-yl)pyrazolo[1,5-a]-pyrimidine]: the IC50 was over 1000 nM in experiment [1] and 100 to 1000 nM in experiment [2]. For the compound `CN1CCN(C2CCN(Cc3cc4nc(-c5cccc6[nH]ccc56)cc(N5CCOCC5)n4n3)CC2)CC1` [Example 3, 5-(1H-indol-4-yl)-2-((4-(4-methylpiperazin-1-yl)piperidin-1-yl)methyl)-7-(morpholin-4-yl)pyrazolo[1,5-a] pyrimidine], the IC50 in experiment [1] is over 1000 nM; in experiment [2] it was under 100 nM. As for `c1cc(-c2cc(N3CCOCC3)n3nc(CN4CCN(CC5CC5)CC4)cc3n2)c2cc[nH]c2c1` [Example 26, 2-((4-(cyclopropylmethyl)piperazin-1-yl)methyl)-5-(1H-indol-4-yl)-7-(morpholin-4-yl)pyrazolo[1,5-a]-pyrimidine], the IC50 is over 1000 nM in experiment [1] and under 100 nM in experiment [2]. Turning to `CCc1nc2ccccc2n1-c1cc(N2CCOCC2)n2nc(CN3CCC(N(C)C)CC3)cc2n1` [Example 43, 5-(2-ethylbenzimidazo-1-yl)-2-((4-(dimethylamino)piperidin-1-yl)-methyl)-7-(morpholin-4-yl)-pyrazolo[1,5-a]pyrimidine], the concentration for half-maximal inhibition (IC50) was over 1000 nM in experiment [1] and 100 to 1000 nM in experiment [2] (setting [3]). Take `COC1CN(C2CN(Cc3cc4nc(-n5c(C(F)F)nc6ccccc65)cc(N5CCOCC5)n4n3)C2)C1` [Example 67, 5-(2-(difluoromethyl)benzimidazol-1-yl)-2-((3-(3-methoxyazetidin-1-yl)azetidin-1-yl)methyl)-7-(morpholin-4-yl)pyrazolo[1,5-a]-pyrimidine]: the half-inhibitory concentration (IC50) in experiment [2] (setting [3]) is under 100 nM.

Turning to `C[C@@H]1CN(C2CN(Cc3cc4nc(-n5c(C(F)F)nc6ccccc65)cc(N5CCOCC5)n4n3)C2)C[C@H](C)O1` [Example 65, 5-(2-(difluoromethyl)benzimidazol-1-yl)-2-((3-((2R,6S)-2,6-dimethylmorpholin-4-yl)azetidin-1-yl)methyl)-7-(morpholin-4-yl)-pyrazolo[1,5-a]pyrimidine], the IC50 in experiment [2] (setting [3]) is under 100 nM.

The values above are taken from patent US10138247B2, “7-(morpholin-4-yl)pyrazole[1,5-A]pyrimidine derivatives as PI3 kinase inhibitors” (priority 2015, dated 2018).
